The values below come from paper PMC7144022, “Quinolinecarboxamides Inhibit the Replication of the Bovine Viral Diarrhea Virus by Targeting a Hot Spot for the Inhibition of Pestivirus Replication in the RNA-Dependent RNA Polymerase” (Molecules, 2020).

A short description of series [1]: Cytotoxicity assay, proliferation of exponentially growing MDBK cells (MTS/PMS). The settings on record: bovine. Type of series: cell-based, bovine. The method, then:
Assays were carried out, as described previously.

For a further series, the system named is BVDV NADL virus. Put plainly: CPE-based antiviral assay, BVDV NADL in MDBK cells (MTS/PMS). The settings on record: for EC50: Bovine viral diarrhea virus isolates and strains, MDBK, 72 h; for S.I.: selectivity index, CC50 vs EC50; for fold increase: sheet CSFCII#, potency relative to TO502-2403 (EC50 0.2 µM).

Bounds are passed on as bounds.

A word on the CC50: it is the concentration that lowers cell viability or growth by half. The EC50 is the concentration at which the effect is half-maximal. Higher therefore signals a need for much substance. In turn, `Cc1cccc2sc(NC(=O)c3cc(-c4cccs4)nc4c(Cl)cccc34)nc12` [CSFC-98, Clc5cccc1c5nc(cc1C(=O)Nc2nc3c(C)cccc3s2)c4cccs4] came in with a CC50 at 5 days in series [1] above 100000 nM. Also, in the series with BVDV NADL virus, it took 200 nM to reach a half-maximal effect (EC50), the S.I. came out at 500 and the fold increase stood at 1.00.

In series [1], `O=C(Nc1ccn(-c2ccccc2)n1)c1cc(-c2cccnc2)nc2ccccc12` [CSFC-99, O=C(Nc1ccn(n1)c1ccccc1)c1cc(nc2ccccc21)c1cccnc1] displayed a CC50 at 5 days of 72000 nM. In the series with BVDV NADL virus, a half-maximal effect (EC50) was put at 53600 nM, the S.I. was found to be 1 and the fold increase was 0.00373.

`O=C(Nc1ccn(-c2ccccc2)n1)c1cc(-c2cccs2)nc2c(F)cccc12` [CSFC-100, O=C(Nc1ccn(n1)c2ccccc2)c4cc(nc3c(F)cccc34)c5cccs5] displayed a CC50 at 5 days in series [1] above 100000 nM. Besides, in the series on BVDV NADL virus, the EC50 worked out at 50 nM, the S.I. came out at 2000 and the fold increase worked out at 4.00.

Turning to `Cc1cccc2sc(NC(=O)c3cc(-c4cccs4)nc4c(F)cccc34)nc12` [CSFC-101, Fc5cccc1c5nc(cc1C(=O)Nc2nc3c(C)cccc3s2)c4cccs4], the midpoint of cytotoxicity in series [1], the CC50 at 5 days, lay at 23200 nM. For the same compound, in the series on BVDV NADL virus, the midpoint of the response, the EC50, lay at 300 nM; the S.I. is listed as 77; the fold increase is listed as 0.67.

`O=C(Nc1ccn(-c2ccccc2)n1)c1cc(-c2ccccc2F)nc2c(F)cccc12` [CSFC-102, Fc1ccccc1c3nc2c(cccc2F)c(c3)C(=O)Nc4ccn(n4)c5ccccc5] came in with a CC50 at 5 days in series [1] above 100000 nM. Besides, in the series with BVDV NADL virus, the EC50 turned out to be 300 nM, the S.I. stood at 333 and the fold increase amounted to 0.67.

`Cc1cccc2sc(NC(=O)c3cc(-c4ccccc4F)nc4c(F)cccc34)nc12` [CSFC-103, Fc1ccccc1c3nc2c(cccc2F)c(c3)C(=O)Nc4nc5c(C)cccc5s4] yielded a CC50 at 5 days in series [1] above 100000 nM. In addition, in the series on BVDV NADL virus, the midpoint of the response, the EC50, lay at 500 nM; the S.I. stood at 200; the fold increase came out at 0.40.

In series [1], `O=C(Nc1ccn(-c2ccc(Cl)cc2)n1)c1cc(-c2ccco2)nc2c(F)cccc12` [CSFC-104, Clc1ccc(cc1)n2ccc(n2)NC(=O)c4cc(nc3c(F)cccc34)c5ccco5] returned a CC50 at 5 days above 100000 nM. For the same compound, in the series with BVDV NADL virus, the EC50 was 200 nM, the S.I. is 500 and the fold increase is recorded as 1.00.

Compound `Cc1c(-c2ccco2)nc2ccccc2c1C(=O)Nc1nc2c(C)cccc2s1` [CSFC-105, Cc2c(nc1ccccc1c2C(=O)Nc3nc4c(C)cccc4s3)c5ccco5] returned a CC50 at 5 days in series [1] above 100000 nM. Further, in the series on BVDV NADL virus, the EC50 turned out to be 700 nM, the S.I. is given as 143 and the fold increase was found to be 0.29.

In the case of `O=C(Nc1nnc(-c2ccccc2)s1)c1cc(-c2cccs2)nc2ccc(F)cc12` [CSFC-106, O=C(Nc1nnc(s1)c2ccccc2)c4cc(nc3ccc(F)cc34)c5cccs5], the CC50 at 5 days in series [1] is above 100000 nM. In the series with BVDV NADL virus, a half-maximal effect (EC50) was put at 2300 nM, the S.I. amounted to 43 and the fold increase turned out to be 0.09.

Turning to `COc1ccc(-c2cc(C(=O)Nc3ccn(-c4ccccc4)n3)c3ccccc3n2)cc1F` [CSFC-107, COc1ccc(cc1F)c3nc2ccccc2c(c3)C(=O)Nc4ccn(n4)c5ccccc5], the CC50 at 5 days in series [1] was above 100000 nM. In the series on BVDV NADL virus, the response was half-maximal at 600 nM (EC50), the S.I. was found to be 167 and the fold increase turned out to be 0.33.

As to `O=C(Nc1ccn(-c2ccccc2)n1)c1cc(-c2cnccn2)nc2ccccc12` [CSFC-108, O=C(c2cc(nc1ccccc12)c3cnccn3)Nc4ccn(n4)c5ccccc5], the CC50 at 5 days in series [1] is above 100000 nM. In the series on BVDV NADL virus, the EC50 came out at 200 nM, the S.I. was determined as 500 and the fold increase is given as 1.00.

Regarding `O=C(Nc1ccn(-c2ccccc2)n1)c1cc(-c2cccs2)nc2c(Cl)cccc12` [CSFC-109, O=C(Nc1ccn(n1)c2ccccc2)c4cc(nc3c(Cl)cccc34)c5cccs5], half-maximal cytotoxicity in series [1] (CC50 at 5 days) was put at 13000 nM. Besides, in the series on BVDV NADL virus, the EC50 came out at 200 nM, the S.I. is on record as 65 and the fold increase amounted to 1.00.

`Cc1sc(NC(=O)c2cc(-c3ccccc3)nc3ccccc23)nc1-c1ccccc1` [CSFC-110, O=C(Nc2nc(c1ccccc1)c(C)s2)c4cc(nc3ccccc34)c5ccccc5]: the CC50 at 5 days in series [1] was above 100000 nM. Besides, in the series with BVDV NADL virus, a half-maximal response (EC50) required 300 nM, the S.I. is given as 333 and the fold increase amounted to 0.67.

`O=C(Nc1ccn(-c2ccccc2)n1)c1cc(-c2ccccc2Cl)nc2ccccc12` [CSFC-111, Clc1ccccc1c3nc2ccccc2c(c3)C(=O)Nc4ccn(n4)c5ccccc5]: the CC50 at 5 days in series [1] is above 100000 nM. In addition, in the series with BVDV NADL virus, a half-maximal response (EC50) required 400 nM, the S.I. turned out to be 250 and the fold increase is reported as 0.50.

`Cc1ccc(-c2cc(C(=O)Nc3ccn(-c4ccccc4)n3)c3ccccc3n2)cc1` [CSFC-112, Cc1ccc(cc1)c3nc2ccccc2c(c3)C(=O)Nc4ccn(n4)c5ccccc5]: the CC50 at 5 days in series [1] was above 100000 nM. Besides, in the series with BVDV NADL virus, it took 100 nM to reach a half-maximal effect (EC50), the S.I. came to 1000 and the fold increase was determined as 2.00.

As for `Cc1cccc2sc(NC(=O)c3cc(-c4ccccc4Cl)nc4ccccc34)nc12` [CSFC-113, Clc1ccccc1c3nc2ccccc2c(c3)C(=O)Nc4nc5c(C)cccc5s4], the CC50 at 5 days in series [1] is above 100000 nM. For the same compound, in the series on BVDV NADL virus, the midpoint of the response, the EC50, lay at 400 nM; the S.I. came to 250; the fold increase is 0.50.

In series [1], `Cc1ccc(-c2csc(NC(=O)c3cc(-c4ccccc4)nc4ccccc34)n2)cc1` [CSFC-114, O=C(Nc1nc(cs1)c2ccc(C)cc2)c4cc(nc3ccccc34)c5ccccc5] registered a CC50 at 5 days above 100000 nM. Moreover, in the series on BVDV NADL virus, the EC50 worked out at 1100 nM, the S.I. amounted to 91 and the fold increase was found to be 0.18.

Take `Cc1cccc2sc(NC(=O)c3cc(-c4ccncc4)nc4ccccc34)nc12` [CSFC-115, Cc1cccc2sc(nc12)NC(=O)c4cc(nc3ccccc34)c5ccncc5]: the CC50 at 5 days in series [1] was above 100000 nM. In the series with BVDV NADL virus, the response was half-maximal at 200 nM (EC50), the S.I. is 500 and the fold increase is recorded as 1.00.

`Cc1cccc2sc(NC(=O)c3cc(-c4cnccn4)nc4ccccc34)nc12` [CSFC-116, Cc1cccc2sc(nc12)NC(=O)c4cc(nc3ccccc34)c5cnccn5] yielded a CC50 at 5 days in series [1] above 100000 nM. Moreover, in the series on BVDV NADL virus, the EC50 is 300 nM, the S.I. was 333 and the fold increase came to 0.67.

In the case of `COc1ccc(-c2cc(C(=O)Nc3nc4c(C)cccc4s3)c3ccccc3n2)cc1` [CSFC-117, COc1ccc(cc1)c3nc2ccccc2c(c3)C(=O)Nc4nc5c(C)cccc5s4], the CC50 at 5 days in series [1] was above 100000 nM. In the series with BVDV NADL virus, a half-maximal response (EC50) required 1700 nM, the S.I. is 59 and the fold increase was determined as 0.12.

In turn, `COc1ccc(-c2cc(C(=O)Nc3ccn(-c4ccccc4)n3)c3ccccc3n2)cc1` [CSFC-118, COc1ccc(cc1)c3nc2ccccc2c(c3)C(=O)Nc4ccn(n4)c5ccccc5] yielded a CC50 at 5 days in series [1] above 100000 nM. In the series on BVDV NADL virus, the EC50 stood at 300 nM, the S.I. was found to be 333 and the fold increase was 0.67.

Consider `COc1ccc(-c2cc(C(=O)Nc3nc4c(C)cccc4s3)c3ccccc3n2)cc1F` [CSFC-119, COc1ccc(cc1F)c3nc2ccccc2c(c3)C(=O)Nc4nc5c(C)cccc5s4], for which the CC50 at 5 days in series [1] was above 100000 nM. In addition, in the series on BVDV NADL virus, a half-maximal response (EC50) required 2500 nM, the S.I. amounted to 40 and the fold increase is on record as 0.08.

Take `Cc1ccc(-c2cc(C(=O)Nc3nc4c(C)cccc4s3)c3ccccc3n2)cc1` [CSFC-120, Cc1ccc(cc1)c3nc2ccccc2c(c3)C(=O)Nc4nc5c(C)cccc5s4]: the cytotoxic concentration (CC50) at 5 days in series [1] is above 100000 nM. Also, in the series with BVDV NADL virus, the response was half-maximal at 200 nM (EC50), the S.I. was 500 and the fold increase was determined as 1.00.

In turn, `O=C(Nc1ccn(-c2ccccc2)n1)c1cc(-c2ccncc2)nc2ccccc12` [CSFC-121, O=C(Nc1ccn(n1)c1ccccc1)c1cc(nc2ccccc21)c1ccncc1] registered a CC50 at 5 days in series [1] above 100000 nM. Further, in the series on BVDV NADL virus, the response was half-maximal at 100000 nM (EC50), the S.I. was found to be 1 and the fold increase is on record as 0.002.

Compound `O=C(Nc1ccn(-c2ccccc2)n1)c1cc(-c2cccs2)nc2ccc(Br)cc12` [CSFC-122, O=C(Nc1ccn(n1)c2ccccc2)c4cc(nc3ccc(Br)cc34)c5cccs5] displayed a CC50 at 5 days in series [1] above 100000 nM. In addition, in the series with BVDV NADL virus, it took 600 nM to reach a half-maximal effect (EC50), the S.I. stood at 167 and the fold increase worked out at 0.33.

In turn, `O=C(Nc1ccn(-c2ccccc2)n1)c1cc(-c2ccc(F)cc2)nc2ccc(F)cc12` [CSFC-123, Fc1ccc(cc1)c3nc2ccc(F)cc2c(c3)C(=O)Nc4ccn(n4)c5ccccc5] had a CC50 at 5 days in series [1] above 100000 nM. For the same compound, in the series with BVDV NADL virus, the EC50 turned out to be 300 nM, the S.I. is 333 and the fold increase was determined as 0.67.

`O=C(Nc1ccn(-c2ccccc2F)n1)c1cc(-c2ccccc2)nc2ccccc12` [CSFC-125, Fc1ccccc1n2ccc(n2)NC(=O)c4cc(nc3ccccc34)c5ccccc5] yielded a cytotoxic concentration (CC50) at 5 days in series [1] above 100000 nM. Besides, in the series with BVDV NADL virus, the EC50 came out at 1600 nM, the S.I. is 63 and the fold increase amounted to 0.13.

`O=C(Nc1ccn(-c2cccc(F)c2)n1)c1cc(-c2ccccc2)nc2ccccc12` [CSFC-126, Fc1cccc(c1)n2ccc(n2)NC(=O)c4cc(nc3ccccc34)c5ccccc5]: in series [1], the CC50 at 5 days was above 100000 nM. In the series with BVDV NADL virus, the EC50 came out at 600 nM, the S.I. is recorded as 167 and the fold increase was found to be 0.33.

On to `O=C(Nc1ccn(-c2cccc(F)c2)n1)c1cc(-c2cccnc2)nc2ccccc12` [CSFC-127, Fc1cccc(c1)n2ccc(n2)NC(=O)c4cc(nc3ccccc34)c5cccnc5], for which the CC50 at 5 days in series [1] was above 100000 nM. In addition, in the series with BVDV NADL virus, the EC50 was 100000 nM and the fold increase was 0.002.

For `O=C(Nc1ccn(-c2ccc(F)cc2)n1)c1cc(-c2ccccc2)nc2ccccc12` [CSFC-128, Fc1ccc(cc1)n2ccc(n2)NC(=O)c4cc(nc3ccccc34)c5ccccc5], the CC50 at 5 days in series [1] is above 100000 nM. In addition, in the series with BVDV NADL virus, the concentration for a half-maximal effect (EC50) came out at 500 nM, the S.I. was determined as 200 and the fold increase amounted to 0.40.
